Converted amounts (≈) assume the structure as drawn.
Legend:
Type in all cases: functional
Shigella flexneri [1] = test: Antimicrobial activity against Shigella flexneri MTCC1457 assessed as diameter of growth inhibition zone after 24 hr
Candida albicans [2] = test: Antimicrobial activity against Candida albicans MTCC 183 assessed as diameter of growth inhibition zone after 48 hr
Salmonella typhi [3] = test: Antimicrobial activity against Salmonella enterica subsp. enterica serovar Typhi MTCC 733 assessed as growth inhibition after 24 hr by agar streak dilution method; conditions: MTCC 733, 24 h
Aspergillus fumigatus [4] = test: Antimicrobial activity against Aspergillus fumigatus MTCC 343 assessed as growth inhibition after 48 hr by agar streak dilution method; conditions: MTCC 343, 48 h
Pseudomonas aeruginosa [5] = test: Antimicrobial activity against Pseudomonas aeruginosa MTCC 741 assessed as diameter of growth inhibition zone after 24 hr
Klebsiella pneumoniae [6] = test: Antimicrobial activity against Klebsiella pneumoniae MTCC 109 assessed as growth inhibition after 24 hr by agar streak dilution method; conditions: MTCC 109, 24 h
Aspergillus clavatus [7] = test: Antimicrobial activity against Aspergillus clavatus MTCC 1323 assessed as growth inhibition after 48 hr by agar streak dilution method; conditions: MTCC 1323, 48 h
Aspergillus fumigatus [8] = test: Antimicrobial activity against Aspergillus fumigatus MTCC 343 assessed as diameter of growth inhibition zone after 48 hr
Aspergillus niger [9] = test: Antimicrobial activity against Aspergillus niger MTCC 282 assessed as growth inhibition after 48 hr by agar streak dilution method; conditions: MTCC 282, 48 h
Bacillus cereus [10] = test: Antimicrobial activity against Bacillus cereus MTCC 430 assessed as diameter of growth inhibition zone after 24 hr
Aspergillus niger [11] = test: Antimicrobial activity against Aspergillus niger MTCC 282 assessed as diameter of growth inhibition zone after 48 hr
Escherichia coli [12] = test: Antimicrobial activity against Escherichia coli MTCC 739 assessed as growth inhibition after 24 hr by agar streak dilution method; conditions: MTCC 739, 24 h
Klebsiella pneumoniae [13] = test: Antimicrobial activity against Klebsiella pneumoniae MTCC 109 assessed as diameter of growth inhibition zone after 24 hr
Aspergillus clavatus [14] = test: Antimicrobial activity against Aspergillus clavatus MTCC 1323 assessed as diameter of growth inhibition zone after 48 hr
Staphylococcus aureus [15] = test: Antimicrobial activity against Staphylococcus aureus MTCC 96 assessed as growth inhibition after 24 hr by agar streak dilution method; conditions: MTCC 96, 24 h
Salmonella typhi [16] = test: Antimicrobial activity against Salmonella enterica subsp. enterica serovar Typhi MTCC 733 assessed as diameter of growth inhibition zone after 24 hr
Pseudomonas aeruginosa [17] = test: Antimicrobial activity against Pseudomonas aeruginosa MTCC 741 assessed as growth inhibition after 24 hr by agar streak dilution method; conditions: MTCC 741, 24 h
Candida albicans [18] = test: Antimicrobial activity against Candida albicans MTCC 183 assessed as growth inhibition after 48 hr by agar streak dilution method; conditions: MTCC 183, 48 h
Proteus vulgaris [19] = test: Antimicrobial activity against Proteus vulgaris MTCC 1771 assessed as diameter of growth inhibition zone after 24 hr
[20] = test system: Mycobacterium tuberculosis; test: Antituberculosis activity against Mycobacterium tuberculosis H37Rv assessed as growth inhibition after 12 to 28 days by L-J MIC method; conditions: for MIC: Mycobacterium tuberculosis, H37Rv
Escherichia coli [21] = test: Antimicrobial activity against Escherichia coli MTCC 739 assessed as diameter of growth inhibition zone after 24 hr
Proteus vulgaris [22] = test: Antimicrobial activity against Proteus vulgaris MTCC 1771 assessed as growth inhibition after 24 hr by agar streak dilution method; conditions: MTCC 1771, 24 h
Staphylococcus aureus [23] = test: Antimicrobial activity against Staphylococcus aureus MTCC 96 assessed as diameter of growth inhibition zone after 24 hr
Shigella flexneri [24] = test: Antimicrobial activity against Shigella flexneri MTCC1457 assessed as growth inhibition after 24 hr by agar streak dilution method; conditions: MTCC1457, 24 h
Bacillus cereus [25] = test: Antimicrobial activity against Bacillus cereus MTCC 430 assessed as growth inhibition after 24 hr by agar streak dilution method; conditions: MTCC 430, 24 h

Structure (SMILES): COc1ccc(-c2cc(-c3ccc(Nc4cc(=O)oc5ccccc45)cc3)nc(N)n2)cc1
- diameter of the inhibition zone (DIZ) (Shigella flexneri [1]): 19 mm
- diameter of the inhibition zone (DIZ) (Candida albicans [2]): 24 mm
- MIC (Salmonella typhi [3]): 50 µg/mL (≈ 115 µM)
- MIC (Aspergillus fumigatus [4]): 25 µg/mL (≈ 57.3 µM)
- diameter of the inhibition zone (DIZ) (Pseudomonas aeruginosa [5]): 21 mm
- MIC (Klebsiella pneumoniae [6]): 25 µg/mL (≈ 57.3 µM)
- MIC (Aspergillus clavatus [7]): 12.5 µg/mL (≈ 28.6 µM)
- diameter of the inhibition zone (DIZ) (Aspergillus fumigatus [8]): 20 mm
- MIC (Aspergillus niger [9]): 12.5 µg/mL (≈ 28.6 µM)
- diameter of the inhibition zone (DIZ) (Bacillus cereus [10]): 21 mm
- diameter of the inhibition zone (DIZ) (Aspergillus niger [11]): 23 mm
- MIC (Escherichia coli [12]): 25 µg/mL (≈ 57.3 µM)
- diameter of the inhibition zone (DIZ) (Klebsiella pneumoniae [13]): 20 mm
- diameter of the inhibition zone (DIZ) (Aspergillus clavatus [14]): 23 mm
- MIC (Staphylococcus aureus [15]): 12.5 µg/mL (≈ 28.6 µM)
- diameter of the inhibition zone (DIZ) (Salmonella typhi [16]): 19 mm
- MIC (Pseudomonas aeruginosa [17]): 12.5 µg/mL (≈ 28.6 µM)
- MIC (Candida albicans [18]): 25 µg/mL (≈ 57.3 µM)
- diameter of the inhibition zone (DIZ) (Proteus vulgaris [19]): 24 mm
- growth inhibition (GI) [20]: 98%
- MIC [20]: 62.5 µg/mL (≈ 143 µM)
- diameter of the inhibition zone (DIZ) (Escherichia coli [21]): 22 mm
- MIC (Proteus vulgaris [22]): 12.5 µg/mL (≈ 28.6 µM)
- diameter of the inhibition zone (DIZ) (Staphylococcus aureus [23]): 22 mm
- MIC (Shigella flexneri [24]): 50 µg/mL (≈ 115 µM)
- MIC (Bacillus cereus [25]): 12.5 µg/mL (≈ 28.6 µM)

Structure (SMILES): COc1ccc(C2CC(c3ccc(Nc4cc(=O)oc5ccccc45)cc3)=NN2C(C)=O)cc1 (centres undefined)
- diameter of the inhibition zone (DIZ) (Shigella flexneri [1]): 16 mm
- diameter of the inhibition zone (DIZ) (Candida albicans [2]): 19 mm
- MIC (Salmonella typhi [3]): 100 µg/mL (≈ 221 µM)
- MIC (Aspergillus fumigatus [4]): 50 µg/mL (≈ 110 µM)
- diameter of the inhibition zone (DIZ) (Pseudomonas aeruginosa [5]): 18 mm
- MIC (Klebsiella pneumoniae [6]): 100 µg/mL (≈ 221 µM)
- MIC (Aspergillus clavatus [7]): 25 µg/mL (≈ 55.1 µM)
- diameter of the inhibition zone (DIZ) (Aspergillus fumigatus [8]): 18 mm
- MIC (Aspergillus niger [9]): 25 µg/mL (≈ 55.1 µM)
- diameter of the inhibition zone (DIZ) (Bacillus cereus [10]): 15 mm
- diameter of the inhibition zone (DIZ) (Aspergillus niger [11]): 21 mm
- MIC (Escherichia coli [12]): 50 µg/mL (≈ 110 µM)
- diameter of the inhibition zone (DIZ) (Klebsiella pneumoniae [13]): 17 mm
- diameter of the inhibition zone (DIZ) (Aspergillus clavatus [14]): 20 mm
- MIC (Staphylococcus aureus [15]): 100 µg/mL (≈ 221 µM)
- diameter of the inhibition zone (DIZ) (Salmonella typhi [16]): 17 mm
- MIC (Pseudomonas aeruginosa [17]): 50 µg/mL (≈ 110 µM)
- MIC (Candida albicans [18]): 50 µg/mL (≈ 110 µM)
- diameter of the inhibition zone (DIZ) (Proteus vulgaris [19]): 20 mm
- growth inhibition (GI) [20]: 99%
- MIC [20]: 100 µg/mL (≈ 221 µM)
- diameter of the inhibition zone (DIZ) (Escherichia coli [21]): 19 mm
- MIC (Proteus vulgaris [22]): 50 µg/mL (≈ 110 µM)
- diameter of the inhibition zone (DIZ) (Staphylococcus aureus [23]): 16 mm
- MIC (Shigella flexneri [24]): 100 µg/mL (≈ 221 µM)
- MIC (Bacillus cereus [25]): 100 µg/mL (≈ 221 µM)

Structure (SMILES): CC(=O)N1N=C(c2ccc(Nc3cc(=O)oc4ccccc34)cc2)CC1c1ccc(Cl)cc1 (centres undefined)
- diameter of the inhibition zone (DIZ) (Shigella flexneri [1]): 20 mm
- diameter of the inhibition zone (DIZ) (Candida albicans [2]): 19 mm
- MIC (Salmonella typhi [3]): 50 µg/mL (≈ 109 µM)
- MIC (Aspergillus fumigatus [4]): 50 µg/mL (≈ 109 µM)
- diameter of the inhibition zone (DIZ) (Pseudomonas aeruginosa [5]): 14 mm
- MIC (Klebsiella pneumoniae [6]): 50 µg/mL (≈ 109 µM)
- MIC (Aspergillus clavatus [7]): 100 µg/mL (≈ 218 µM)
- diameter of the inhibition zone (DIZ) (Aspergillus fumigatus [8]): 17 mm
- MIC (Aspergillus niger [9]): 100 µg/mL (≈ 218 µM)
- diameter of the inhibition zone (DIZ) (Bacillus cereus [10]): 17 mm
- diameter of the inhibition zone (DIZ) (Aspergillus niger [11]): 16 mm
- MIC (Escherichia coli [12]): 100 µg/mL (≈ 218 µM)
- diameter of the inhibition zone (DIZ) (Klebsiella pneumoniae [13]): 21 mm
- diameter of the inhibition zone (DIZ) (Aspergillus clavatus [14]): 15 mm
- MIC (Staphylococcus aureus [15]): 50 µg/mL (≈ 109 µM)
- diameter of the inhibition zone (DIZ) (Salmonella typhi [16]): 18 mm
- MIC (Pseudomonas aeruginosa [17]): 100 µg/mL (≈ 218 µM)
- MIC (Candida albicans [18]): 50 µg/mL (≈ 109 µM)
- diameter of the inhibition zone (DIZ) (Proteus vulgaris [19]): 19 mm
- growth inhibition (GI) [20]: 97%
- MIC [20]: 250 µg/mL (≈ 546 µM)
- diameter of the inhibition zone (DIZ) (Escherichia coli [21]): 15 mm
- MIC (Proteus vulgaris [22]): 50 µg/mL (≈ 109 µM)
- diameter of the inhibition zone (DIZ) (Staphylococcus aureus [23]): 19 mm
- MIC (Shigella flexneri [24]): 50 µg/mL (≈ 109 µM)
- MIC (Bacillus cereus [25]): 100 µg/mL (≈ 218 µM)

Structure (SMILES): Cc1ccc(/C=C/C(=O)c2ccc(Nc3cc(=O)oc4ccccc34)cc2)cc1
- diameter of the inhibition zone (DIZ) (Shigella flexneri [1]): 18 mm
- diameter of the inhibition zone (DIZ) (Candida albicans [2]): 11 mm
- MIC (Salmonella typhi [3]): 100 µg/mL (≈ 262 µM)
- MIC (Aspergillus fumigatus [4]): 100 µg/mL (≈ 262 µM)
- diameter of the inhibition zone (DIZ) (Pseudomonas aeruginosa [5]): 15 mm
- MIC (Klebsiella pneumoniae [6]): 100 µg/mL (≈ 262 µM)
- MIC (Aspergillus clavatus [7]): 100 µg/mL (≈ 262 µM)
- diameter of the inhibition zone (DIZ) (Aspergillus fumigatus [8]): 13 mm
- MIC (Aspergillus niger [9]): 100 µg/mL (≈ 262 µM)
- diameter of the inhibition zone (DIZ) (Bacillus cereus [10]): 15 mm
- diameter of the inhibition zone (DIZ) (Aspergillus niger [11]): 14 mm
- MIC (Escherichia coli [12]): 100 µg/mL (≈ 262 µM)
- diameter of the inhibition zone (DIZ) (Klebsiella pneumoniae [13]): 10 mm
- diameter of the inhibition zone (DIZ) (Aspergillus clavatus [14]): <10 mm
- MIC (Staphylococcus aureus [15]): 100 µg/mL (≈ 262 µM)
- diameter of the inhibition zone (DIZ) (Salmonella typhi [16]): 13 mm
- MIC (Pseudomonas aeruginosa [17]): 100 µg/mL (≈ 262 µM)
- MIC (Candida albicans [18]): 100 µg/mL (≈ 262 µM)
- diameter of the inhibition zone (DIZ) (Proteus vulgaris [19]): 19 mm
- growth inhibition (GI) [20]: 96%
- MIC [20]: 500 µg/mL (≈ 1310 µM)
- diameter of the inhibition zone (DIZ) (Escherichia coli [21]): <10 mm
- MIC (Proteus vulgaris [22]): 50 µg/mL (≈ 131 µM)
- diameter of the inhibition zone (DIZ) (Staphylococcus aureus [23]): 14 mm
- MIC (Shigella flexneri [24]): 50 µg/mL (≈ 131 µM)
- MIC (Bacillus cereus [25]): 100 µg/mL (≈ 262 µM)

Reference: ChEMBL document CHEMBL3045446, “In vitro antimicrobial and antimycobacterial activity of some chalcones and their derivatives” (2013)
